In patent publication EP0728012B1, “NOVEL GnRH ANALOGUES WITH ANTITUMOUR EFFECTS AND PHARMACEUTICAL COMPOSITIONS THEREOF” (Lovas, Sandor, priority 1994, dated 1996):

How the values were obtained:
PC3 = experiment: Inhibition of colony formation by GnRH analogues (dose-survival, Example 48); assay type: cell-based, human; settings: within the dose range used (1-50 µM)
Protocol: (§1) The examination gives accurate information about the cell-damaging effect of the substance tested as a function of varying doses. The treatment was carried out once; the colonies formed from the surviving cells were counted after 8 - 12 days. […] A part of the arrested cells again entered the cycle, another part of them might be destroyed (apoptosis). […] In the case of a dose-response investigation, colonies containing less than 15 cells were not counted. 300 cells were put into each Petri dishes of 3.5 cm in diameter. The treatment was once carried out 24 hours after setting, then the colonies formed were counted after 8 - 12 days. The cells were treated once after 24 hours with 1-50 µM of various GnRH analogues of Examples above or with 1 - 50 µM of GnRH-III, respectively. The percentages of inhibition obtained on MCF-7, MDA-MB-231, PC3 and Ishikawa cells, respectively, together with the dose of the active agent used are shown in Table VIII.

MDA-MB-231 = experiment: as above; assay type: cell-based, human; settings: 50 µM
Protocol: as §1

MCF-7 = experiment: as above; assay type: cell-based, human; settings: 50 µM, treated once
Protocol: as §1

Ishikawa = experiment: as above; assay type: cell-based, human; settings: within the dose range used (1-50 µM)
Protocol: as §1

[1] = system: MCF-7 human mammary carcinoma cell line; experiment: Inhibition of colony formation (dose-survival relation, Example 18); assay type: cell-based; settings: 50 µM (active substance), treated once
[2] = system: MDA-MB-231 human mammary carcinoma cell line; experiment: as above; assay type: cell-based; settings: 50 µM
[3] = system: PC3 human prostate carcinoma cell line; experiment: as above; assay type: cell-based; settings: 50 µM
MDA-MB-231 xenograft = experiment: In vivo antitumour effect on MDA-MB-231 xenograft in immunosuppressed mice; set-up: species or system CBA/Ca mice
Protocol: The immunosuppression of mice was carried out by using the method of Steel et al. [Br. J. Cancer, 37, 224-230 (1978)]. Immunosuppression and xeno-transplantation
CBA-Ca female mice of about 6 weeks old were thymectomized and then, after one week, they were irradiated with 60Co (whole body irradiation; the lethal dose is 9.5 Gray). Within 24 hours 3 to 5 x 10^5 myelocytes were injected into the animals. Beneath the skin of the immunosuppressed mice 2 x 10^7 tumour cells or, in the case of later passages, […] were implanted. […] The treatment with steroid hormone was stopped by at least one week before beginning the investigation.
Recent investigations have begun on 28 animals bearing MCF-7 xenograft and on 28 animals bearing MDA-MB-231 xenograft. On animals bearing MCF-7 tumour the treatment was commenced in the 5th week following xeno-transplantation; the tumour volume was 205 to 225 mm^3. On animals bearing MDA-MB-231 tumour, the treatment was started in the 4th week after xeno-transplantation with a tumour volume of 140 to 150 mm^3. […] The control groups were daily treated with physiological saline s.c. (Each treated group consisting of 7 animals).
A more recent study was started on 28 animals bearing MDA-MB-231 xenograft. The treatment was begun in the 4th or 5th week following xenotransplantation. The tumour volume was 0.165 to 0.194 cm^3. […] (For treatment of the control group, see the preceding Examples). Each group consisted of 7 animals.

rat hypophysis = settings: superfusion, relative to human GnRH; cited from earlier work
[4] = prolonged treatment for three cycles; high doses; cited from earlier work
[5] = MDA-MB-231 xenograft, after 9 week treatment, 100 µg daily s.c.
[6] = Table V, treatment week 2, 1x100 µg daily s.c.
[7] = Table V, treatment week 4, 1x100 µg daily s.c.
[8] = Table V, treatment week 6, 1x100 µg daily s.c.
[9] = week 0, daily s.c., 1 x 100 µg series
[10] = week 1, daily s.c., 1 x 100 µg series
[11] = week 2, daily s.c., 1 x 100 µg series
[12] = week 3, daily s.c., 1 x 100 µg series
[13] = week 4, daily s.c., 1 x 100 µg series
[14] = week 5, daily s.c., 1 x 100 µg series
[15] = week 6, daily s.c., 1 x 100 µg series
[16] = week 7, daily s.c., 1 x 100 µg series

NCCCC[C@H](NC(=O)[C@H](Cc1c[nH]c2ccccc12)NC(=O)[C@H](CC(=O)O)NC(=O)[C@H](Cc1c[nH]cn1)NC(=O)[C@H](CO)NC(=O)[C@H](Cc1c[nH]c2ccccc12)NC(=O)[C@H](Cc1c[nH]cn1)NC(=O)[C@@H]1CCC(=O)N1)C(=O)N1CCC[C@H]1C(=O)NCC(N)=O [GnRH-III, reference compound]
inhibition of colony formation (PC3): 21%
% Inhibition of the colony formation (MDA-MB-231): 49%
% Inhibition of the colony formation (MCF-7): 45%
inhibition of colony formation (Ishikawa): did not inhibit
% Inhibition of colony formation [1]: 65%
% Inhibition of colony formation [2]: 69%
% Inhibition of colony formation [3]: 21%
rate of tumour growth (MDA-MB-231 xenograft; MDA-MB-231 xenograft, 100 µg daily s.c.): did not inhibit
Volume (cm^3) of tumours (MDA-MB-231 xenograft; [5]): 2.017 ± 0.585 cm^3
Weight (g) of tumours (MDA-MB-231 xenograft; [5]): 1.84 ± 0.52 g
Inhibition % (MDA-MB-231 xenograft; [6]): 14%
Tumour volume as control (%) (MDA-MB-231 xenograft; [6]): 86%
Inhibition % (MDA-MB-231 xenograft; [7]): 15%
Tumour volume as control (%) (MDA-MB-231 xenograft; [7]): 85%
Inhibition % (MDA-MB-231 xenograft; [8]): 15%
Tumour volume as control (%) (MDA-MB-231 xenograft; [8]): 85%
Tumour volume (cm^3) (MDA-MB-231 xenograft; [9]): 0.19 cm^3
Tumour volume as control (%) (MDA-MB-231 xenograft; [9]): 115%
Tumour volume (cm^3) (MDA-MB-231 xenograft; [10]): 0.26 cm^3
Tumour volume as control (%) (MDA-MB-231 xenograft; [10]): 113%
Tumour volume (cm^3) (MDA-MB-231 xenograft; [11]): 0.36 cm^3
Tumour volume as control (%) (MDA-MB-231 xenograft; [11]): 86%
Tumour volume (cm^3) (MDA-MB-231 xenograft; [12]): 0.47 cm^3
Tumour volume as control (%) (MDA-MB-231 xenograft; [12]): 85%
Tumour volume (cm^3) (MDA-MB-231 xenograft; [13]): 0.55 cm^3
Tumour volume as control (%) (MDA-MB-231 xenograft; [13]): 85%
Tumour volume (cm^3) (MDA-MB-231 xenograft; [14]): 0.81 cm^3
Tumour volume as control (%) (MDA-MB-231 xenograft; [14]): 87%
Tumour volume (cm^3) (MDA-MB-231 xenograft; [15]): 1.04 cm^3
Tumour volume as control (%) (MDA-MB-231 xenograft; [15]): 85%
Tumour volume (cm^3) (MDA-MB-231 xenograft; [16]): 1.28 cm^3
Tumour volume as control (%) (MDA-MB-231 xenograft; [16]): 101%
LH-releasing effect (rat hypophysis): about thousand times weaker than that of the human GnRH
ovulation of female rats [4]: did not inhibit the ovulation
